Seven compounds from article PMC6920857, “Novel Series of Methyl 3-(Substituted Benzoyl)-7-Substituted-2-Phenylindolizine-1-Carboxylates as Promising Anti-Inflammatory Agents: Molecular Modeling Studies” (Biomolecules, 2019) can be followed below.

The melting point is the temperature, or range, at which the solid turns liquid. The term IC50 denotes the midpoint of a concentration-inhibition curve.

Data set [1] addresses T1, human recombinant COX-2 enzyme (Homo sapiens, UniProt P35354).
T1 sequence (P35354 18-604): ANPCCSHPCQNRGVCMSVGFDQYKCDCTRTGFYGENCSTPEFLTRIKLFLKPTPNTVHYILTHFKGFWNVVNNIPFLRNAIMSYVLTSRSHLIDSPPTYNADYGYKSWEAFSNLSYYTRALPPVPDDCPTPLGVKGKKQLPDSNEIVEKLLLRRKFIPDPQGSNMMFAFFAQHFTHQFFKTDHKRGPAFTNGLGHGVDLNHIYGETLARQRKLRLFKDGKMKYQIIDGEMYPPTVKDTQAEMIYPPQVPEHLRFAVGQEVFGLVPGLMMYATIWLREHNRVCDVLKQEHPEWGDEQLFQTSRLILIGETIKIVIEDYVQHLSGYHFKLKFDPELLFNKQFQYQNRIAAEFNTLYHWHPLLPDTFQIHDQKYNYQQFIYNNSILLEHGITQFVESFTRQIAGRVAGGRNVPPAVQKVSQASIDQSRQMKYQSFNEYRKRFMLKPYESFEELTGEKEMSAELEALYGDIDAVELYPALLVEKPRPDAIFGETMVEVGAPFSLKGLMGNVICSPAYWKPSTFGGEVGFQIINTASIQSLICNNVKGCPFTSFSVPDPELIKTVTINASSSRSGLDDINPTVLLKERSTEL
The experiment in a line: In vitro COX-2 inhibition assay.

`COC(=O)c1c(-c2ccccc2)c(C(=O)c2ccccc2)n2ccc(C)cc12` [Compound 4a, Methyl 3-Benzoyl-7-Methyl-2-Phenylindolizine-1-Carboxylate] gave a melting point of 173 to 174 °C. Also, in data set [1], the IC50 came out at 41.59 ± 0.03 µM.
The compound `COC(=O)c1c(-c2ccccc2)c(C(=O)c2ccc(F)cc2)n2ccc(C)cc12` [Compound 4b, Methyl 3-(4-Fluorobenzoyl)-7-Methyl-2-Phenylindolizine-1-Carboxylate] yielded a melting point of 167 to 168 °C. Also, the IC50 in data set [1] turned out to be 27.08 ± 0.03 µM.
Taken in the same sequence, the figures for `COC(=O)c1c(-c2ccccc2)c(C(=O)c2ccc(Cl)cc2)n2ccc(C)cc12` [Compound 4c, Methyl 3-(4-Chlorobenzoyl)-7-Methyl-2-Phenylindolizine-1-Carboxylate] were 154 to 155 °C and 38.11 ± 0.03 µM.
Regarding `COC(=O)c1c(-c2ccccc2)c(C(=O)c2ccc(Br)cc2)n2ccc(C)cc12` [Compound 4d, Methyl 3-(4-Bromobenzoyl)-7-Methyl-2-Phenylindolizine-1-Carboxylate], the melting point fell in the range of 137 to 138 °C. In addition, the IC50 in data set [1] is 37.66 ± 0.03 µM.
The corresponding values for `COC(=O)c1c(-c2ccccc2)c(C(=O)c2ccc(C#N)cc2)n2ccc(C#N)cc12` [Compound 4e, Methyl 7-Cyano-3-(4-Cyanobenzoyl)-2-Phenylindolizine-1-Carboxylate] are 235 to 236 °C and 6.71 ± 0.03 µM.
The compound `COC(=O)c1c(-c2ccccc2)c(C(=O)c2ccc(Br)cc2)n2ccc(C#N)cc12` [Compound 4f, Methyl 3-(4-Bromobenzoyl)-7-Cyano-2-Phenylindolizine-1-Carboxylate] showed a melting point of 208 to 209 °C. Moreover, the IC50 in data set [1] was determined as 13.55 ± 0.03 µM.
Taken in the same sequence, the figures for `COC(=O)c1c(-c2ccccc2)c(C(=O)c2ccc(OC)cc2)n2ccc(C#N)cc12` [Compound 4g, Methyl 7-Cyano-3-(4-Methoxybenzoyl)-2-Phenylindolizine-1-Carboxylate] were 166 to 167 °C and 9.62 ± 0.03 µM.
